Test results: BigSolDB 2.1

CC(C)(C)c1cc(CCC(=O)OCC(COC(=O)CCc2cc(C(C)(C)C)c(O)c(C(C)(C)C)c2)(COC(=O)CCc2cc(C(C)(C)C)c(O)c(C(C)(C)C)c2)COC(=O)CCc2cc(C(C)(C)C)c(O)c(C(C)(C)C)c2)cc(C(C)(C)C)c1O
solubility (mole fraction)
Conditions | 293.15 K | 298.15 K | 303.15 K | 308.15 K | 313.15 K | 318.15 K | 323.15 K | 328.15 K | 333.15 K
in ethanol | 0.000302 | 0.000445 | 0.000685 | 0.00105 | 0.0016 | 0.00238 | 0.00351 | 0.0051 | 0.0074
in isopropanol | 0.000148 | 0.000239 | 0.000406 | 0.000631 | 0.000998 | 0.00158 | 0.00252 | 0.00411 | 0.00638
in methanol | 0.000221 | 0.000332 | 0.000544 | 0.000812 | 0.00126 | 0.00203 | 0.00287 | 0.00429 | 0.00726
